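Tested at 5 concentrations; 48 h exposure; 96-well plates; endpoints linearly interpolated, else capped at highest concentration. GI50 is the concentration that inhibits growth by half.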 The source made the active and inactive calls. No stated cut-off is given here; in the data, active = GI50 up to about 1.1 µM and inactive = higher.
Columns and labels:
Experiment in all cases: DTP human tumour cell line panel, 48 h
SN12C = test system: SN12C
HL-60 = test system: HL-60
OVCAR-5 = test system: OVCAR-5
NCI-H226 = test system: NCI-H226
SR = test system: SR
M14 = test system: M14
ACHN = test system: ACHN
HOP-62 = test system: HOP-62
UACC-62 = test system: UACC-62
SK-MEL-2 = test system: SK-MEL-2
SF-539 = test system: SF-539
OVCAR-4 = test system: OVCAR-4
NCI-H460 = test system: NCI-H460
RPMI-8226 = test system: RPMI-8226
MCF7 = test system: MCF7
MOLT-4 = test system: MOLT-4
SK-MEL-28 = test system: SK-MEL-28
K562 = test system: K562
OVCAR-8 = test system: OVCAR-8

Row | SMILES | GI50 (SN12C) | GI50 (HL-60) | GI50 (OVCAR-5) | GI50 (NCI-H226) | GI50 (SR) | GI50 (M14) | GI50 (ACHN) | GI50 (HOP-62) | GI50 (UACC-62) | GI50 (SK-MEL-2) | GI50 (SF-539) | GI50 (OVCAR-4) | GI50 (NCI-H460) | GI50 (RPMI-8226) | GI50 (MCF7) | GI50 (MOLT-4) | GI50 (SK-MEL-28) | GI50 (K562) | GI50 (OVCAR-8)
1 | C[C@@H]1CCC2[C@@H](C)[C@H](O[C@H]3O[C@@H]4O[C@@]5(C)CCC6[C@H](C)CCC([C@H]3C)[C@]64OO5)O[C@@H]3O[C@@]4(C)CCC1[C@@]23OO4 (stereo partly specified) | 0.186 µM (active) | 0.0243 µM (active) | 0.352 µM (active) | 2.11 µM (inactive) | 0.0318 µM (active) | 0.475 µM (active) | 0.0953 µM (active) | 4.04 µM (inactive) | 0.0805 µM (active) | 0.401 µM (active) | 0.264 µM (active) | 0.27 µM (active) | 0.0675 µM (active) | 0.0127 µM (active) | 0.0925 µM (active) | 0.0546 µM (active) | 5.69 µM (inactive) | 0.0202 µM (active) | 0.0929 µM (active)
2 | CCC1=CCC23C(=O)C=CC(=O)C2(C1)C(=O)c1cccc(OC)c1C3=O (stereo unspecified) | 18.3 µM (inactive) | 2.73 µM (inactive) | 16.2 µM (inactive) | 22.1 µM (inactive) | 9.82 µM (inactive) | 16 µM (inactive) | 14.3 µM (inactive) | 22.7 µM (inactive) | 15.8 µM (inactive) | 22.7 µM (inactive) | 18.4 µM (inactive) | 12.7 µM (inactive) | 28.2 µM (inactive) | 4.41 µM (inactive) | 14.3 µM (inactive) | 3.87 µM (inactive) | 18.2 µM (inactive) | 12.9 µM (inactive) | 15.2 µM (inactive)
3 | N=c1c2c(ncn1N)Oc1c(c(-c3ccccc3)nn1-c1ccccc1)C2c1ccc(Cl)cc1 (stereo unspecified) | 1.79 µM (inactive) | 0.408 µM (active) | 1.5 µM (inactive) | 1.98 µM (inactive) | 0.918 µM (active) | 1.56 µM (inactive) | 2.04 µM (inactive) | 1.66 µM (inactive) | 1.54 µM (inactive) | 1.69 µM (inactive) | 1.18 µM (inactive) | 1.56 µM (inactive) | 1.42 µM (inactive) | 2.35 µM (inactive) | 1.44 µM (inactive) | 0.895 µM (active) | 1.76 µM (inactive) | 0.731 µM (active) | 1.95 µM (inactive)
4 | N=C(/C=C/c1ccc(-c2cn3cc(/C=C/C(=N)N4CCCC4)ccc3n2)cc1)N1CCCC1 | > 100 µM (inactive) | > 100 µM (inactive) | > 100 µM (inactive) | > 100 µM (inactive) | > 100 µM (inactive) | > 100 µM (inactive) | 68.9 µM (inactive) | > 100 µM (inactive) | > 100 µM (inactive) | > 100 µM (inactive) | 47.3 µM (inactive) | > 100 µM (inactive) | 81.3 µM (inactive) | > 100 µM (inactive) | > 100 µM (inactive) | > 100 µM (inactive) | > 100 µM (inactive) | > 100 µM (inactive) | 79.1 µM (inactive)
5 | O=C(/C=C1\Nc2ccccc2N\C1=C/C(=O)c1ccc(F)cc1)c1ccc(F)cc1 | > 100 µM (inactive) | 46.5 µM (inactive) | > 100 µM (inactive) | > 100 µM (inactive) | 54.3 µM (inactive) | > 100 µM (inactive) | > 100 µM (inactive) | 61 µM (inactive) | > 100 µM (inactive) | > 100 µM (inactive) | > 100 µM (inactive) | > 100 µM (inactive) | 53.7 µM (inactive) | 51.4 µM (inactive) | 15.1 µM (inactive) | > 100 µM (inactive) | > 100 µM (inactive) | > 100 µM (inactive) | > 100 µM (inactive)
6 | O=C(O)c1c2c(cc3c1CC(Cc1ccccc1)C3=O)CCC2 (stereo unspecified) | > 100 µM (inactive) | 22.4 µM (inactive) | > 100 µM (inactive) | > 100 µM (inactive) | 67.5 µM (inactive) | > 100 µM (inactive) | 63 µM (inactive) | > 100 µM (inactive) | > 100 µM (inactive) | > 100 µM (inactive) | 76.6 µM (inactive) | > 100 µM (inactive) | 74.8 µM (inactive) | 39.7 µM (inactive) | > 100 µM (inactive) | 96.8 µM (inactive) | > 100 µM (inactive) | 75.2 µM (inactive) | > 100 µM (inactive)
7 | CC1C[C@]2(C)C(=S)Nc3ccccc3[C@@H]2Nc2ccccc21 (stereo partly specified) | 17.9 µM (inactive) | 33.5 µM (inactive) | 20.8 µM (inactive) | 17.3 µM (inactive) | > 100 µM (inactive) | 17.4 µM (inactive) | 19.3 µM (inactive) | 17.7 µM (inactive) | 18 µM (inactive) | 13 µM (inactive) | 19.3 µM (inactive) | 17.8 µM (inactive) | 13.2 µM (inactive) | 23.4 µM (inactive) | 13 µM (inactive) | 17.5 µM (inactive) | 0.39 µM (active) | 26.6 µM (inactive) | 15.9 µM (inactive)
8 | O=C1Nc2ccccc2/C1=C1/Nc2ccccc2/C1=N/OCCOCCO | 2.69 µM (inactive) | 2.11 µM (inactive) | 4.62 µM (inactive) | 0.547 µM (active) | 1.68 µM (inactive) | 1.9 µM (inactive) | 0.738 µM (active) | 3.9 µM (inactive) | 1.44 µM (inactive) | 0.644 µM (active) | 2.88 µM (inactive) | 7.19 µM (inactive) | 1.21 µM (inactive) | 3.47 µM (inactive) | 1.99 µM (inactive) | 2.96 µM (inactive) | 5.05 µM (inactive) | 5 µM (inactive) | 3.91 µM (inactive)
9 | CCCC(=O)Nc1cn(COC)c(C(=O)N2C[C@H]3C[C@@]34C2=CC(=O)c2[nH]cc(C)c24)n1 | 11.5 µM (inactive) | 0.728 µM (active) | 12.4 µM (inactive) | 9.86 µM (inactive) | 2.2 µM (inactive) | 8.15 µM (inactive) | 2.42 µM (inactive) | 7.98 µM (inactive) | 5.92 µM (inactive) | 14 µM (inactive) | 4.98 µM (inactive) | 9.12 µM (inactive) | 3.24 µM (inactive) | 6.04 µM (inactive) | 1.32 µM (inactive) | 0.553 µM (active) | 12 µM (inactive) | 5.31 µM (inactive) | 2.69 µM (inactive)
10 | N#Cc1ccc(C(=O)/C=C/c2ccc(O)c(O)c2)cc1 | 15.5 µM (inactive) | 2.5 µM (inactive) | 17.7 µM (inactive) | 20.2 µM (inactive) | 1.57 µM (inactive) | 18.2 µM (inactive) | 17.3 µM (inactive) | 17.9 µM (inactive) | 17.1 µM (inactive) | 17.3 µM (inactive) | 15.6 µM (inactive) | 12.4 µM (inactive) | 16.1 µM (inactive) | 3.1 µM (inactive) | 13 µM (inactive) | 8.38 µM (inactive) | 15.5 µM (inactive) | 7.1 µM (inactive) | > 40.4 µM (inactive)
11 | CN(C)CCCN1c2ccccc2C(C)(C)c2ccccc21 [DIMETACRINE] | 14.4 µM (inactive) | 15.1 µM (inactive) | 14.1 µM (inactive) | 15.6 µM (inactive) | 13.1 µM (inactive) | 15.5 µM (inactive) | 15.3 µM (inactive) | 14.8 µM (inactive) | 13.1 µM (inactive) | 16.5 µM (inactive) | 15.2 µM (inactive) | 13.9 µM (inactive) | 13.6 µM (inactive) | 13.1 µM (inactive) | 14.8 µM (inactive) | 13.7 µM (inactive) | 15.4 µM (inactive) | 13.3 µM (inactive) | 16.1 µM (inactive)
12 | NCC1OC(n2cnc3c(N)ncnc32)CC1O (stereo unspecified) | > 100 µM (inactive) | > 100 µM (inactive) | > 100 µM (inactive) | > 100 µM (inactive) | > 100 µM (inactive) | > 100 µM (inactive) | > 100 µM (inactive) | > 100 µM (inactive) | > 100 µM (inactive) | > 100 µM (inactive) | > 100 µM (inactive) | > 100 µM (inactive) | > 100 µM (inactive) | > 100 µM (inactive) | > 100 µM (inactive) | > 100 µM (inactive) | > 100 µM (inactive) | > 100 µM (inactive) | > 100 µM (inactive)
13 | N=C(N)NS(=O)(=O)c1ccc(NNc2c3ccccc3nc3c(C(=O)Nc4ccc(S(N)(=O)=O)cc4)cccc23)cc1 | 43.8 µM (inactive) | 23.9 µM (inactive) | 76 µM (inactive) | 92 µM (inactive) | 5.37 µM (inactive) | 83.4 µM (inactive) | 52.7 µM (inactive) | 53.7 µM (inactive) | 18.7 µM (inactive) | 9.02 µM (inactive) | 26.6 µM (inactive) | 51.2 µM (inactive) | 19.7 µM (inactive) | 17.8 µM (inactive) | 8.47 µM (inactive) | 5.75 µM (inactive) | 68.1 µM (inactive) | 19.9 µM (inactive) | 36.1 µM (inactive)
14 | O=S(=O)(Nc1ccc2ccc3cccc4ccc1c2c34)c1ccccc1 | 15 µM (inactive) | 37.7 µM (inactive) | > 100 µM (inactive) | 19.4 µM (inactive) | 2.67 µM (inactive) | > 100 µM (inactive) | 36.1 µM (inactive) | 33.3 µM (inactive) | 8.95 µM (inactive) | 70.5 µM (inactive) | 25.6 µM (inactive) | > 100 µM (inactive) | 37.3 µM (inactive) | 6.34 µM (inactive) | 43.4 µM (inactive) | 8.77 µM (inactive) | > 100 µM (inactive) | 6.7 µM (inactive) | > 100 µM (inactive)
